Data on 46 compounds can be found in patent US20240190855A1 (Relay Therapeutics, Inc., priority 2021, published 2024).

The target of this test is T1, CDK2/Cyclin E complex (Homo sapiens, UniProt P24941).
T1 construct: purchased Eurofins 14-475
The test can be described thus: CDK2/Cyclin E fluorescence-based microfluidic mobility shift assay (CDK2 Biochemical Caliper Assay). Particulars: read-out: Biochemical CDK2/CyclinE Caliper IC50. An outline of the steps:
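Microfluidic mobility-shift readout after EDTA termination measured phosphorylation of fluorescent FL Peptide 18 (1.5 uM final) in a 20 hr room-temperature reaction. Compounds were tested at 11 concentrations (3-fold).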

On to `COCc1cc2c(Nc3cc([C@H]4C[C@@H](COC(=O)N5[C@@H](C)CC[C@@H]5C)C4)[nH]n3)nccn2n1` [Example 621], for which the IC50 was at most 100 nM.

As for `COCc1cc(C(=O)Nc2cc([C@H]3C[C@@H](COc4cn[nH]c4C(C)(C)C)C3)[nH]n2)n(C)n1` [Example 622], the IC50 is at most 100 nM.

In the case of `COCc1cc(C(=O)Nc2cc([C@H]3C[C@@H](COc4cn(C)nc4C(C)C)C3)[nH]n2)n(C)n1` [Example 623], the IC50 is 100 to 250 nM.

`CCOCc1cc(C(=O)Nc2cc([C@H]3C[C@@H](COC(=O)NC(C)C)C3)[nH]n2)n(C)n1` [Example 624]: the IC50 was at most 100 nM.

As for `CCOCc1cc(C(=O)Nc2cc([C@H]3C[C@H](COC(=O)NC(C)C)C3)[nH]n2)n(C)n1` [Example 625], the IC50 lay within 1000 to 100000 nM.

As for `COCc1cc(C(=O)Nc2cc([C@H]3CC[C@@H](OC(=O)NC(C)C)CC3)[nH]n2)n(C)n1` [Example 626], the IC50 was 250 to 1000 nM.

For the compound `COCc1cc(C(=O)Nc2cc([C@H]3CC[C@@H](Oc4nnccc4C(C)C)CC3)[nH]n2)n(C)n1` [Example 627], the IC50 was at most 100 nM.

Consider `COCc1cc(C(=O)Nc2cc([C@@H]3CC[C@H](Oc4cn[nH]c4C(C)C)C3)[nH]n2)n(C)n1` [Example 628], for which the IC50 was in the range of 250 to 1000 nM.

For `COCc1cc(C(=O)Nc2cc([C@H]3CC[C@@H](Oc4cn[nH]c4C(C)C)C3)[nH]n2)n(C)n1` [Example 629], the IC50 is 100 to 250 nM.

On to `COCc1cc2c(Nc3cc([C@H]4C[C@@H](COc5cn[nH]c5C(C)(C)C)C4)[nH]n3)nccn2n1` [Example 630], for which the IC50 is at most 100 nM.

On to `COCc1cc(C(=O)Nc2cc([C@H]3C[C@@H](COc4cnn(C)c4C(C)C)C3)[nH]n2)n(C)n1` [Example 631], for which the IC50 is 100 to 250 nM.

Turning to `COCc1cc(C(=O)Nc2cc([C@H]3C[C@@H](COc4nncn4C(C)(C)C)C3)[nH]n2)n(C)n1` [Example 632], the IC50 was at most 100 nM.

As to `COCc1cc(C(=O)Nc2cc([C@H]3C[C@@H](COc4nncn4C(C)C)C3)[nH]n2)n(C)n1` [Example 633], the IC50 is at most 100 nM.

As for `CC(C)NC(=O)O[C@@H]1CO[C@H](c2cc(NC(=O)c3cc(CN4CCCC4)nn3C)n[nH]2)C1` [Example 634], the IC50 is 100 to 250 nM.

In the case of `CC(C)n1cnnc1OC[C@H]1C[C@@H](c2cc(Nc3nccn4nccc34)n[nH]2)C1` [Example 635], the IC50 was at most 100 nM.

In the case of `COCc1cc2c(Nc3cc([C@H]4C[C@@H](COc5nncn5C(C)(C)C)C4)[nH]n3)nccn2n1` [Example 636], the IC50 was at most 100 nM.

Regarding `CC(C)(C)n1cnnc1OC[C@H]1C[C@@H](c2cc(Nc3nccn4nccc34)n[nH]2)C1` [Example 637], the IC50 is at most 100 nM.

`COCc1cc2c(Nc3cc([C@H]4C[C@@H](OC(=O)N[C@H](C)CC(F)(F)F)CO4)[nH]n3)nccn2n1` [Example 638]: the IC50 is at most 100 nM.

Turning to `COCc1cc2c(Nc3cc([C@H]4C[C@@H](OC(=O)N[C@@H](C)CC(F)(F)F)CO4)[nH]n3)nccn2n1` [Example 639], the IC50 is at most 100 nM.

Regarding `COCc1cc2c(Nc3cc([C@H]4C[C@@H](OC(=O)NC5(C(F)(F)F)CC5)CO4)[nH]n3)nccn2n1` [Example 640], the IC50 was at most 100 nM.

Take `COCc1cc2c(Nc3cc([C@H]4C[C@@H](OC(=O)NC(C)(C)C(F)(F)F)CO4)[nH]n3)nccn2n1` [Example 641]: the IC50 is at most 100 nM.

`COCc1cc(C(=O)Nc2cc([C@H]3C[C@@H](COc4cn(C)nc4C(C)(C)C)C3)[nH]n2)n(C)n1` [Example 642]: the IC50 lay within 100 to 250 nM.

For the compound `COCc1cc2c(Nc3cc([C@H]4C[C@@H](OC(=O)NC5(CC(F)(F)F)CC5)CO4)[nH]n3)nccn2n1` [Example 643], the IC50 is at most 100 nM.

As for `COCc1cc2c(Nc3cc([C@H]4C[C@@H](OC(=O)NC5(C(F)F)CC5)CO4)[nH]n3)nccn2n1` [Example 644], the IC50 was at most 100 nM.

In the case of `COCc1cc(C(=O)Nc2cc([C@H]3C[C@@H](COc4cn[nH]c4C4(C)CC4)C3)[nH]n2)n(C)n1` [Example 645], the IC50 lay in the range of 250 to 1000 nM.

In the case of `CC(C)NC(=O)OC[C@H]1C[C@@H](c2cc(NC(=O)c3cc(COC(F)(F)F)nn3C)n[nH]2)C1` [Example 646], the IC50 was at most 100 nM.

Take `COCc1cc2c(Nc3cc([C@H]4C[C@@H](OC(=O)NC(C)(C)C(F)F)CO4)[nH]n3)nccn2n1` [Example 647]: the IC50 is at most 100 nM.

With `CC(C)NC(=O)O[C@@H]1CO[C@H](c2cc(Nc3nccc4nccn34)n[nH]2)C1` [Example 648], the IC50 is at most 100 nM.

`CC(C)NC(=O)O[C@H]1CO[C@@H](c2cc(Nc3nccc4nccn34)n[nH]2)C1` [Example 649]: the IC50 is at most 100 nM.

As to `CC(C)NC(=O)OC[C@H]1C[C@@H](c2cc(NC(=O)c3cc(COC(F)F)nn3C)n[nH]2)C1` [Example 650], the IC50 is at most 100 nM.

As to `COCc1cc2c(Nc3cc([C@H]4C[C@@H](OC(=O)NC56CC(C5)C6)CO4)[nH]n3)nccn2n1` [Example 651], the IC50 is at most 100 nM.

As for `CC(C)NC(=O)OC[C@H]1C[C@@H](c2cc(NC(=O)c3cc(COC(C)C)nn3C)n[nH]2)C1` [Example 652], the IC50 was at most 100 nM.

For the compound `CCOCc1cc2c(Nc3cc([C@H]4C[C@@H](OC(=O)NC(C)C)CO4)[nH]n3)nccn2n1` [Example 653], the IC50 was at most 100 nM.

As for `CC[C@@H](C)NC(=O)O[C@H]1CO[C@@H](c2cc(Nc3nccn4nc(COC)cc34)n[nH]2)C1` [Example 654], the IC50 is at most 100 nM.

`COCc1cc2c(Nc3cc([C@H]4C[C@@H](OC(=O)N[C@H](C)C5CC5)CO4)[nH]n3)nccn2n1` [Example 655]: the IC50 was at most 100 nM.

As for `COCc1cc2c(Nc3cc([C@H]4C[C@@H](OC(=O)N[C@@H](C)C5CC5)CO4)[nH]n3)nccn2n1` [Example 656], the IC50 is at most 100 nM.

With `CC(C)NC(=O)O[C@@H]1CC[C@H](c2cc(NC(=O)c3cc(CN4CCC(F)(F)C4)nn3C)n[nH]2)C1` [Example 657], the IC50 is at most 100 nM.

As for `CC(C)NC(=O)O[C@H]1CO[C@@H](c2cc(Nc3nccn4nc(COC(C)C)cc34)n[nH]2)C1` [Example 658], the IC50 is at most 100 nM.

Turning to `COCc1cc2c(Nc3cc([C@H]4C[C@@H](OC(N)=O)CO4)[nH]n3)nccn2n1` [Example 659], the IC50 was 1000 to 100000 nM.

Consider `C#CC1CN(C(=O)O[C@@H]2CC[C@H](c3cc(NC(=O)Cc4cc(C)no4)n[nH]3)C2)C1` [Example 660], for which the IC50 was 100 to 250 nM.

Regarding `Cc1cc(CC(=O)Nc2cc([C@H]3CC[C@@H](OC(=O)N4CC5C(C4)C5(C)C)C3)[nH]n2)on1` (stereo partly shown) [Example 661], the IC50 was at most 100 nM.

In the case of `Cc1cc(CC(=O)Nc2cc([C@H]3CC[C@@H](OC(=O)N4C[C@@H]5[C@@H](CF)[C@@H]5C4)C3)[nH]n2)on1` [Example 662], the IC50 was at most 100 nM.

In the case of `Cc1cc(CC(=O)Nc2cc([C@H]3CC[C@@H](OC(=O)N4CC5CC(C5)C4)C3)[nH]n2)on1` [Example 663], the IC50 is at most 100 nM.

With `Cc1cc(CC(=O)Nc2cc([C@H]3CC[C@@H](OC(=O)N4CC5CC(F)(C5)C4)C3)[nH]n2)on1` [Example 664], the IC50 fell in the range of 100 to 250 nM.

On to `COCc1cc2c(Nc3cc([C@H]4C[C@@H](OC(=O)N[C@@H](C)C(C)C)CO4)[nH]n3)nccn2n1` [Example 665], for which the IC50 was at most 100 nM.

In the case of `COCc1cc2c(Nc3cc([C@H]4C[C@@H](OC(=O)NC5CCC5)CO4)[nH]n3)nccn2n1` [Example 666], the IC50 was at most 100 nM.
